Measured values reported in ChEMBL document CHEMBL4316584, “All that glitters is not gold: Panning cytotoxic natural products and derivatives with a fused tricyclic backbone by the estimation of their leadlikeness for cancer treatment” (Eur J Med Chem, 2019).

How the values were obtained:
Assay type in all cases: functional, cell-based
[1] = system: MCF7; assay: Cytotoxicity against human MCF7 cells after 24 hrs by MTT assay; conditions: MCF7, 24 h
[2] = system: MCF7; assay: Cytotoxicity against human MCF7 cells after 48 hrs by MTS assay; conditions: MCF7, 48 h
[3] = system: HeLa; assay: Cytotoxicity against human HeLa cells by MTT assay
[4] = system: HepG2; assay: Cytotoxicity against human HepG2 cells after 48 hrs by BrDU-incorporation based ELISA; conditions: HepG2, 48 h
[5] = system: BGC-823; assay: Cytotoxicity against human BGC823 cells after 48 hrs by MTT assay; conditions: BGC-823, 48 h
[6] = system: HL-60; assay: Cytotoxicity against human HL60 cells after 48 to 72 hrs by MTT assay
[7] = system: HepG2; assay: Cytotoxicity against human HepG2 cells by MTT assay
[8] = system: Bel-7402; assay: Cytotoxicity against human Bel7402 cells after 44 hrs by MTT assay; conditions: Bel-7402, 44 h
[9] = system: HepG2; assay: Cytotoxicity against human HepG2 cells after 44 hrs by MTT assay; conditions: HepG2, 44 h
[10] = system: Bel-7402; assay: Cytotoxicity against human Bel7402 cells by MTT assay
[11] = system: Bel-7402; assay: Cytotoxicity against human Bel7402 cells after 48 hrs by MTT assay; conditions: Bel-7402, 48 h
[12] = system: HT-29; assay: Cytotoxicity against human HT-29 cells after 48 hrs by MTS assay; conditions: HT-29, 48 h
[13] = system: A549; assay: Cytotoxicity against human A549 cells after 48 hrs by MTS assay; conditions: A549, 48 h
[14] = system: HL-60; assay: Cytotoxicity against human HL60 cells after 48 hrs by MTS assay; conditions: HL-60, 48 h
[15] = system: K562; assay: Cytotoxicity against human K562 cells after 48 to 72 hrs by MTT assay

## CCN(CC)CCCC(C)Nc1c2ccc(Cl)cc2nc2ccc(OC)cc12 (stereo unspecified) [QUINACRINE]
[1]
  IC50: 7.5 µM

## c1ccc2c(c1)ncn2CCCCn1c2ccccc2c2ccccc21
[2]
  IC50: 5.06 µM

## CCn1c2cc(OC)ccc2c2ccnc(C)c21
[3]
  IC50: 17 µM

## CCn1c2ccccc2c2cc(C(=O)OC)ncc21
[3]
  IC50: 17 µM

## c1ccc2nc3ccccc3nc2c1 [PHENAZINE]
[4]
  IC50: 7.8 µM

## O=c1c2ccc(O)cc2oc2cc(O)ccc12
[5]
  IC50: 12.9 µM

## COc1cc(O)cc2ccc3cccc(O)c3c12 [MOSCATIN]
[6]
  IC50: 19.2 µM

## COc1ccc2c3ccnc(C)c3n(C)c2c1
[7]
  IC50: 16 µM

## Cc1cc(=O)[nH]c2c1C(=O)c1ccccc1C2=O [MARCANIN A]
[8]
  IC50: 9.54 µM

## CCOC(=O)c1cc2c3ccccc3n(Cc3ccccc3)c2cn1
[3]
  IC50: 13 µM

## O=c1c2ccc(O)c(O)c2oc2cccc(O)c12
[5]
  IC50: 10.1 µM

## O=C(O)c1cc(O)c2c(c1)C(=O)c1c(O)cccc1C2=O
[9]
  IC50: 16.3 µM

## CCOC(=O)c1cc2c3ccccc3n(Cc3c(F)c(F)c(F)c(F)c3F)c2cn1
[10]
  IC50: 9 µM

## CC(C)=CCc1c(O)c(CC=C(C)C)c2oc3c(O)ccc(O)c3c(=O)c2c1O [GARTANIN]
[11]
  IC50: 7.78 µM

## COc1cc(-c2nc(Cn3cc(CN4C(=O)c5ccccc5C4=O)nn3)cc3c2[nH]c2ccccc23)cc(OC)c1OC
[12]
  IC50: 5.79 µM

## Cc1cc2ncn(CCCCn3c4ccccc4c4ccccc43)c2cc1C
[13]
  IC50: 19.4 µM

## CC(C)=CCc1c(O)cc2oc3cc(O)ccc3c(=O)c2c1O
[5]
  IC50: 12.1 µM

## Clc1ccc(-c2nc(Cn3cc(COc4ccc(Br)cc4)nn3)cc3c2[nH]c2ccccc23)cc1
[12]
  IC50: 15.6 µM

## c1ccc2c(c1)c1ccccc1n2CCCCCn1ccnc1
[14]
  IC50: 14.4 µM

## COc1ccc(-c2nc(Cn3cc(CN4C(=O)c5cccc6cccc(c56)C4=O)nn3)cc3c2[nH]c2ccccc23)cc1OC
[12]
  IC50: 7.46 µM

## COC1=CC(=O)c2c(ccc3cc(O)ccc23)C1=O
[15]
  IC50: 13.8 µM
